Substitutions are numbered along the chain they refer to. Values joined by “and” are separate entries in the source; they are usually repeats but may differ in a detail not shown here. Identical values can stand only once.
Legend:
T2R38 AVI = target: T1, T2R38 AVI (Homo sapiens, UniProt P59533, A262V); assay: Single cell calcium imaging, control: cells transfected with nonfunctional allele (AVI) of T2R38; type: cell-based; conditions: T2R38 AVI, individual values of experiments 1-5
T1 construct: leader: first 45 amino acids of rat somatostatin receptor subtype 3 (SSTR3) (N); expressed in transfected cells; host or cells: Peakrapid cells (HEK293 derivative, ATCC CRL-2828) stably expressing Galpha16gustducin44, co-transfected with human RTP4
T1 sequence (P59533 1-333 A262V): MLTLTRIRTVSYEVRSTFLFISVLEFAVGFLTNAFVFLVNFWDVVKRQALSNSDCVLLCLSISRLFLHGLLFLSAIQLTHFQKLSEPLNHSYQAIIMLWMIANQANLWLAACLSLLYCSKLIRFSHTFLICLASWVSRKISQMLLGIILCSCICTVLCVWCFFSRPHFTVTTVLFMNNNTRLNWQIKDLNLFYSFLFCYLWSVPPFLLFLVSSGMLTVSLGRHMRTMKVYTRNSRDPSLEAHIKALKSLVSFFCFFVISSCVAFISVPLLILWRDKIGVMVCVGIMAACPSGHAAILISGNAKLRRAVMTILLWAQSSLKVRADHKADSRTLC
Protocol: (§1) The coding sequences of either the functional (PAV, GenBank accession number AY258597.1) and non-functional (AVI, GenBank accession number AF494231.1) were amplified from human genomic DNA by polymerase chain reaction.
(§2) The Peakrapid cell line expressing stably a chimeric Gα16gustducin44 G protein [21] was used. 40 000 cells were seeded in each well of a black/clear poly-D-lysine cellware pre-coated 96-well plate (Biocoat®, Becton-Dickinson, Erembodegem, Belgium) and transiently transfected with 50 ng of plasmid DNA containing the receptor sequence or not (empty vector) and with 50 ng of chaperone protein RTP4 per well. Forty hours after transfection, cells were incubated with the calcium-sensitive dye Fluo4 (Life Technologies, Oregon, USA) solubilized at 10 μg/ml in a buffer containing EMEM (150 mM NaCl, 5 mM KCl, 2 mM CaCl2, 1.2 mM MgCl2, 10 mM glucose), 10 mM HEPES, 0.01% (v/v) Pluronic F127, 0.1% (w/v) bovine serum albumin. After 1 h incubation at 37°C, cells were rinsed twice with the same buffer without Fluo4 and left in 50 μl buffer (prior ligand injection). Measurement were performed on a platform based on a motorized Axiobserver Z1 fluorescence microscope piloted by a Axiovision software (Zeiss, Jena, Germany) as described previously. For each selected well, images were taken 1 per second, during 30 seconds. 50 μl of the buffer containing the ligand twice concentrated was injected on the 2nd second of the time lapse record.
(§3) After time lapse record, the number of responding cells in each injected well was determined using ImageJ 1.34 (Rasband, W.S., ImageJ, National Institutes of Health, Bethesda, Maryland, USA, http://rsb.info.nih.gov/ij/1997-2004), and expressed as the percentage of the surface of a microscope field covered by activated cells with respect to the total surface of the field covered by confluent cells. Automated determination of the surface occupied by responding cells is easier to perform than a cell counting. The resulting percentage of positive surface provided a convenient estimation of the percentage of responding cells, as observed by comparing the percentage of positive surface and percentage of responsive cells determined by direct counting, in the same experiment. In agreement with the literature, the percentage of responding cells was proportional to the agonist concentration. During experiment in each plate, at least 2 wells were tested with phenylthiocarbamide (PTC) at 0.1 mM, which is one of the best characterized agonist of T2R38 in the literature. The activation of T2R38 by PTC allows normalization of the result of other tested molecules. The results were thus expressed as the percentage of PTC activation. In scaling calcium imaging assays using this latter receptor, concentration-responses curves were performed and data were fitted to a four parameter logistic equation: y=min+ (max− min)/1+10 ^(logEC50−x)nH . Min and max are the minimum and the maximum values of the percentage of cell-activated surface respectively, y is the percentage of cell-activated surface at the x concentration and nH is the Hill coefficient.

[1] = test system: mock transfected cells (empty vector); assay: Single cell calcium imaging, control: mock transfected (empty vector) Peakrapid cells; type: cell-based, human
Protocol: as §2, §3

T2R38 = target: T2, T2R38 (Homo sapiens, UniProt P59533, A49P/I296V); assay: Single cell calcium imaging, Peakrapid cells (Gα16gustducin44) transiently transfected with T2R38; type: cell-based; conditions: for response of T2R38 PAV transfected cells (S7_fig raw data): individual values of experiments 1-5; for EC50: concentration-response curve, read-out: EC50; for logEC50: given in the concentration-response curve; for Emax (% of positive control): percentage of the response elicited by 0.1 mM PTC
T2 construct: leader: first 45 amino acids of rat somatostatin receptor subtype 3 (SSTR3) (N); expressed in transfected cells; host or cells: Peakrapid cells (HEK293 derivative, ATCC CRL-2828) stably expressing Galpha16gustducin44, co-transfected with human RTP4
T2 sequence (P59533 1-333 A49P/I296V): T1 sequence (P59533 1-333 A262V) with A49P, V262A, I296V
Source text: as §1
These coding sequences were cloned in a pEFIB backbone vector in translational fusion with the coding sequence of a leader sequence corresponding to the 45 first amino acids of the rat somatostatin receptor subtype 3 [20]. The constructs were verified by sequencing. The coding sequence of RTP4 (Genbank accession number AY562238.1) was amplified from human spleen cDNA and cloned a pCI backbone vector.
The Gα16gustducin44 sequence was generated by swapping the last 132 nucleotides of the G α16 with the corresponding terminal sequence of the Gα-gustducin [21] and was cloned in a pIRES-Puro plasmid. This vector was transfected in the Peakrapid cell line (ATCC reference: CRL-2828™; purchased from LGC Standards SARL, Molsheim, FRANCE), HEK293 cell line derivative, cultured in EMEM culture medium (reference BE12-136F; Lonza, Vervier, BELGIUM) supplemented with 10% of foetal bovine serum (Sigma-Aldrich, Bornem, Belgium) and 1 μg/ml of Puromycin to allow the selection of recombinant cell populations. Cell clones expressing the Gα16gustducin44 were selected and the clone presenting the best functional response of T2R38 to phenylthicarbamide was used for the study (see below).
as §2
as §3, with “In scaling calcium imaging assays using this latter receptor, concentration-responses curves were performed and data were fitted to a four parameter logistic equation: y=min+ (max− min)/1+10 ^(logEC50−x)nH . Min and max are the minimum and the maximum values of the percentage of cell-activated surface respectively, y is the percentage of cell-activated surface at the x concentration and nH is the Hill coefficient.” left out

In the case of `CC(C)=O` [acetone], the “response of T2R38 AVI transfected cells (S7_fig raw data)” value (T2R38 AVI) is reported as 0.559% and 1.33% and 0.331% and 0.695% and 0.444% and 0.829%, the “percentage of surface covered by activated cells” value (“percentage of surface covered” below) ([1]; acetone 0.0035, log10[ ] -2.45) is reported as 1.26% and 0.40% and 0.58% and the “percentage of surface covered” value ([1]; acetone 0.011, log10[ ] -1.95) is reported as 0.32% and 0.08% and 0.49% and 0.06%. For the same molecule, the “percentage of surface covered” value ([1]; acetone 0.035, log10[ ] -1.45) was 0.26% and 0.42% and 1.02% and 0.10%, the “percentage of surface covered” value ([1]; acetone 0.066, log10[ ] -1.18) was 1.43% and 0.30% and 0.70% and the “percentage of surface covered” value ([1]; acetone 0.114, log10[ ] -0.94) was 0.76% and 0.05% and 0.38% and 0.11%. The “percentage of surface covered” value ([1]; acetone 0.162, log10[ ] -0.79) was 1.04% and 0.22% and 0.73% and 0.01%, the “percentage of surface covered” value ([1]; acetone 0.185, log10[ ] -0.73) was 0.0454% and 0.0283% and 0.02% and the “agonist activity on T2R38 (in words)” value (T2R38) was “able to specifically trigger this receptor”. For the same molecule, the “response of T2R38 PAV transfected cells (S7_fig raw data)” value (T2R38) was 16% and 18% and 21% and 22% and 7% and 15%, the “percentage of surface covered” value (T2R38; acetone 0.0035, log10[ ] -2.45) was 0.29% and 0.16% and 0.35% and the “percentage of surface covered” value (T2R38; acetone 0.011, log10[ ] -1.95) was 1.02% and 0.77% and 0.78% and 0.46% and 1.17% and 0.98%. The “percentage of surface covered” value (T2R38; acetone 0.035, log10[ ] -1.45) was 0.69% and 0.81% and 7.95% and 5.59% and 2.13% and 2.80%, the “percentage of surface covered” value (T2R38; acetone 0.066, log10[ ] -1.18) was 2.66% and 2.94% and 6.89% and 9.70% and the EC50 (T2R38) was 60 mM. The logEC50 (T2R38) was -1.22 and the “Emax (% of positive control)” value (T2R38) was 67 % of positive control.

In the case of `CS` [methylmercaptan], the “response of T2R38 AVI transfected cells (S7_fig raw data)” value (T2R38 AVI; listed as méthylmercaptan) is reported as 0.549% and 0.185% and 0.235% and 0.0265% and 0.511% and 0.151% and 0.286% and 0.362% and 1.77% and 0.619% and 1.26% and 0.598% and 0.172% and 0.165%, the “percentage of surface covered” value ([1]; méthylmercaptan 0.0075, log10[ ] -2.12494) is reported as 0.35% and 0.33% and 0.26% and 0.19% and 1.74% and 0.81% and 0.76% and the “percentage of surface covered” value ([1]; méthylmercaptan 0.01, log10[ ] -2) is reported as 0.36% and 0.09% and 0.12% and 0.53% and 2.03% and 0.10% and 0.15% and 0.34%. The “agonist activity on T2R38 (in words)” value (T2R38) was “able to specifically trigger this receptor”, the “response of T2R38 PAV transfected cells (S7_fig raw data)” value (T2R38; listed as méthylmercaptan) was 3.25% and 3.44% and 8% and 6% and 6.36% and 5% and 1.09% and 2.8% and 3.57% and 1.72% and 3% and 1.56% and 5.64% and 4.55% and the EC50 (T2R38) was 8 mM. For the same molecule, the logEC50 (T2R38) was -2.07, the “percentage of surface covered” value (T2R38; méthylmercaptan 0.000630957, log10[ ] -3.2) was 0.11% and 0.07% and 0.29% and 0.31% and 0.27% and 0.54% and 0.96% and 0.62% and the “percentage of surface covered” value (T2R38; méthylmercaptan 0.00439285, log10[ ] -2.35725) was 0.81% and 0.87% and 0.46% and 0.37% and 1.33% and 0.26% and 1.05% and 0.97%. The “Emax (% of positive control)” value (T2R38) was 31 % of positive control.

From paper PMC5597121, “The human bitter taste receptor T2R38 is broadly tuned for bacterial compounds” (PLoS ONE, 2017)
